These are literature values, as cited in US5658892A, “Compound delivery using high-pressure impulse transients” (The General Hospital Corporation, priority 1995, dated 1997).

The data set has as its system prostate tumors. Conditions: rats, Holmes et al. 1990.

Take `N.N.[Cl][Pt][Cl]` [cisplatinum]: under “combined with high-pressure, short-duration waves”, the tumor growth result is on record as “delayed tumor growth was achieved”. The “animal mortality (relative to cisplatinum alone)” value (combined with shock wave therapy) was “an increase in animal mortality”.
